According to patent US3997403A, “Antibiotic G-418 and the production thereof” (Schering Corporation, priority 1975, dated 1976):
Values after ≈ are worked out from the molar mass of the structure shown.

Key:
Escherichia coli 894 = test: In Vitro Antibacterial Activity (Table IV); assay type: cell-based; details: E. coli 894, Tryptose Phosphate Broth pH 7.2 - 7.5, read-out: MIC (Minimum Inhibitory Concentration)
Description: (§1) In Table IV and Table V are set forth the in vitro antibacterial spectrum of Antibiotic G-418 against a variety of gram-positive and gram-negative bacteria using standard art recognized methods.
(§2) *Minimum Inhibitory Concentration -- Medium: Tryptose Phosphate Broth pH

Escherichia coli Sc = test: In Vitro Antibacterial Activity (Table IV); assay type: cell-based; details: E. coli Sc, Tryptose Phosphate Broth pH 7.2 - 7.5, read-out: MIC (Minimum Inhibitory Concentration)
Description: as §1, §2

[1] = tested on: Klebsiella pneumoniae DA20; test: In Vitro Antibacterial Activity (Table IV); assay type: cell-based; details: K. pneumoniae DA20, Tryptose Phosphate Broth pH 7.2 - 7.5, read-out: MIC (Minimum Inhibitory Concentration)
Description: as §1, §2

[2] = tested on: Pseudomonas aeruginosa 37; test: In Vitro Antibacterial Activity (Table IV); assay type: cell-based; details: P. aeruginosa 37, Tryptose Phosphate Broth pH 7.2 - 7.5, read-out: MIC (Minimum Inhibitory Concentration)
Description: as §1, §2

[3] = tested on: Pseudomonas aeruginosa VA6; test: In Vitro Antibacterial Activity (Table IV); assay type: cell-based; details: P. aeruginosa VA6, Tryptose Phosphate Broth pH 7.2 - 7.5, read-out: MIC (Minimum Inhibitory Concentration)
Description: as §1, §2

[4] = tested on: Staphylococcus aureus 209P; test: In Vitro Antibacterial Activity (Table IV); assay type: cell-based; details: S. aureus 209P, Tryptose Phosphate Broth pH 7.2 - 7.5, read-out: MIC (Minimum Inhibitory Concentration)
Description: as §1, §2

[5] = tested on: Staphylococcus aureus Gray; test: In Vitro Antibacterial Activity (Table IV); assay type: cell-based; details: S. aureus Gray, Tryptose Phosphate Broth pH 7.2 - 7.5, read-out: MIC (Minimum Inhibitory Concentration)
Description: as §1, §2

[6] = tested on: Staphylococcus aureus Wood; test: In Vitro Antibacterial Activity (Table IV); assay type: cell-based; details: S. aureus Wood, Tryptose Phosphate Broth pH 7.2 - 7.5, read-out: MIC (Minimum Inhibitory Concentration)
Description: as §1, §2

[7] = tested on: Staphylococcus aureus Ziegler; test: In Vitro Antibacterial Activity (Table IV); assay type: cell-based; details: S. aureus Ziegler, Tryptose Phosphate Broth pH 7.2 - 7.5, read-out: MIC (Minimum Inhibitory Concentration)
Description: as §1, §2

Streptococcus sp. C203 = test: In Vitro Antibacterial Activity (Table IV); assay type: cell-based; details: Tryptose Phosphate Broth pH 7.2 - 7.5, read-out: MIC (Minimum Inhibitory Concentration)
Description: as §1, §2

Streptococcus sp. C = test: In Vitro Antibacterial Activity (Table IV); assay type: cell-based; details: Tryptose Phosphate Broth pH 7.2 - 7.5, read-out: MIC (Minimum Inhibitory Concentration)
Description: as §1, §2

Bacillus subtilis 6633 = test: In Vitro Antibacterial Activity (Table V); assay type: cell-based; details: B. subtilis 6633, Mueller-Hinton Broth pH 7.2 - 7.5
Description: as §1
(§3) *Mueller -- Hinton Broth pH 7.2 - 7.5

Escherichia coli 777 = test: In Vitro Antibacterial Activity (Table V); assay type: cell-based; details: E. coli 777, Mueller-Hinton Broth pH 7.2 - 7.5
Description: as §1, §3

Escherichia coli 887 = test: In Vitro Antibacterial Activity (Table V); assay type: cell-based; details: E. coli 887, Mueller-Hinton Broth pH 7.2 - 7.5
Description: as §1, §3

Proteus mirabilis 12453 = test: In Vitro Antibacterial Activity (Table V); assay type: cell-based; details: Mueller-Hinton Broth pH 7.2 - 7.5
Description: as §1, §3

Proteus morganii 8019 = test: In Vitro Antibacterial Activity (Table V); assay type: cell-based; details: Morganella morganii, Mueller-Hinton Broth pH 7.2 - 7.5
Description: as §1, §3

Proteus rettgeri 9250 = test: In Vitro Antibacterial Activity (Table V); assay type: cell-based; details: Providencia rettgeri, Mueller-Hinton Broth pH 7.2 - 7.5
Description: as §1, §3

[8] = tested on: Pseudomonas aeruginosa 1236; test: In Vitro Antibacterial Activity (Table V); assay type: cell-based; details: P. aeruginosa 1236, Mueller-Hinton Broth pH 7.2 - 7.5
Description: as §1, §3

[9] = tested on: Pseudomonas aeruginosa 1262; test: In Vitro Antibacterial Activity (Table V); assay type: cell-based; details: P. aeruginosa 1262, Mueller-Hinton Broth pH 7.2 - 7.5
Description: as §1, §3

[10] = tested on: Pseudomonas aeruginosa 20; test: In Vitro Antibacterial Activity (Table V); assay type: cell-based; details: P. aeruginosa 20, Mueller-Hinton Broth pH 7.2 - 7.5
Description: as §1, §3

[11] = tested on: Pseudomonas aeruginosa 83; test: In Vitro Antibacterial Activity (Table V); assay type: cell-based; details: P. aeruginosa 83, Mueller-Hinton Broth pH 7.2 - 7.5
Description: as §1, §3

[12] = tested on: Staphylococcus aureus 1257; test: In Vitro Antibacterial Activity (Table V); assay type: cell-based; details: S. aureus 1257, Mueller-Hinton Broth pH 7.2 - 7.5
Description: as §1, §3

Staphylococcus aureus 12 = test: In Vitro Antibacterial Activity (Table V); assay type: cell-based; details: S. aureus 12, Mueller-Hinton Broth pH 7.2 - 7.5
Description: as §1, §3

Staphylococcus aureus 23 = test: In Vitro Antibacterial Activity (Table V); assay type: cell-based; details: S. aureus 23, Mueller-Hinton Broth pH 7.2 - 7.5
Description: as §1, §3

Staphylococcus aureus 26 = test: In Vitro Antibacterial Activity (Table V); assay type: cell-based; details: S. aureus 26, Mueller-Hinton Broth pH 7.2 - 7.5
Description: as §1, §3

Staphylococcus aureus 32 = test: In Vitro Antibacterial Activity (Table V); assay type: cell-based; details: S. aureus 32, Mueller-Hinton Broth pH 7.2 - 7.5
Description: as §1, §3

Staphylococcus aureus 6 = test: In Vitro Antibacterial Activity (Table V); assay type: cell-based; details: S. aureus 6, Mueller-Hinton Broth pH 7.2 - 7.5
Description: as §1, §3

[13] = tested on: Staphylococcus aureus Sm 1; test: In Vitro Antibacterial Activity (Table V); assay type: cell-based; details: SM1, S. aureus Sm 1, Mueller-Hinton Broth pH 7.2 - 7.5
Description: as §1, §3

Streptococcus sp. 16245 = test: In Vitro Antibacterial Activity (Table V); assay type: cell-based; details: Mueller-Hinton Broth pH 7.2 - 7.5
Description: as §1, §3

Streptococcus sp. 27 = test: In Vitro Antibacterial Activity (Table V); assay type: cell-based; details: Mueller-Hinton Broth pH 7.2 - 7.5
Description: as §1, §3

Streptococcus sp. 3045 = test: In Vitro Antibacterial Activity (Table V); assay type: cell-based; details: Mueller-Hinton Broth pH 7.2 - 7.5
Description: as §1, §3

Streptococcus sp. 30 = test: In Vitro Antibacterial Activity (Table V); assay type: cell-based; details: Mueller-Hinton Broth pH 7.2 - 7.5
Description: as §1, §3

Streptococcus sp. 6589 = test: In Vitro Antibacterial Activity (Table V); assay type: cell-based; details: Mueller-Hinton Broth pH 7.2 - 7.5
Description: as §1, §3

Acute Toxicity = test: Acute Toxicity; set-up: species or system Carworth Farms CF-1 mice; details: mouse, in vivo, iv, I.V.

Compound CN[C@@H]1[C@@H](O)[C@@H](O[C@@H]2[C@@H](O)[C@H](O[C@H]3O[C@H]([C@@H](C)O)[C@@H](O)[C@H](O)[C@H]3N)[C@@H](N)C[C@H]2N)OC[C@]1(C)O [Antibiotic G-418] has an MIC (Escherichia coli 894) of 7.5 µg/mL (≈ 15.1 µM), an MIC (Escherichia coli Sc) of 3 µg/mL (≈ 6.04 µM) and an MIC [1] of 3 µg/mL (≈ 6.04 µM). The MIC [2] was 17.5 µg/mL (≈ 35.2 µM), the MIC [3] was 3 µg/mL (≈ 6.04 µM) and the MIC [4] was 0.8 µg/mL (≈ 1.61 µM). It also gave an MIC [5] of 7.5 µg/mL (≈ 15.1 µM), an MIC [6] of 0.8 µg/mL (≈ 1.61 µM) and an MIC [7] of 0.8 µg/mL (≈ 1.61 µM). The MIC (Streptococcus sp. C203) was 17.5 µg/mL (≈ 35.2 µM), the MIC (Streptococcus sp. C) was over 25 µg/mL and the MIC (Bacillus subtilis 6633) was 3 µg/mL (≈ 6.04 µM). For the same compound, the MIC (Escherichia coli 777) was 3 µg/mL (≈ 6.04 µM), the MIC (Escherichia coli 887) was 3 µg/mL (≈ 6.04 µM) and the MIC (Proteus mirabilis 12453) was 7.5 µg/mL (≈ 15.1 µM). The MIC (Proteus morganii 8019) was 0.8 µg/mL (≈ 1.61 µM), the MIC (Proteus rettgeri 9250) was 0.3 µg/mL (≈ 0.604 µM) and the MIC [8] was 17.5 µg/mL (≈ 35.2 µM). The MIC [9] was 17.5 µg/mL (≈ 35.2 µM), the MIC [10] was 3 µg/mL (≈ 6.04 µM) and the MIC [11] was 7.5 µg/mL (≈ 15.1 µM). The MIC [12] was 0.3 µg/mL (≈ 0.604 µM), the MIC (Staphylococcus aureus 12) was 3 µg/mL (≈ 6.04 µM) and the MIC (Staphylococcus aureus 23) was 0.3 µg/mL (≈ 0.604 µM). The MIC (Staphylococcus aureus 26) was 3 µg/mL (≈ 6.04 µM), the MIC (Staphylococcus aureus 32) was 7.5 µg/mL (≈ 15.1 µM) and the MIC (Staphylococcus aureus 6) was 0.3 µg/mL (≈ 0.604 µM). The MIC [13] was 0.3 µg/mL (≈ 0.604 µM), the MIC (Streptococcus sp. 16245) was 7.5 µg/mL (≈ 15.1 µM) and the MIC (Streptococcus sp. 27) was 7.5 µg/mL (≈ 15.1 µM). It also gave an MIC (Streptococcus sp. 3045) of 7.5 µg/mL (≈ 15.1 µM), an MIC (Streptococcus sp. 30) of 7.5 µg/mL (≈ 15.1 µM) and an MIC (Streptococcus sp. 6589) of 7.5 µg/mL (≈ 15.1 µM). For the same compound, the LD50 (Acute Toxicity) was 140 mg/kg.
